Residues, ends and D or L forms follow the SMILES beside them.
How the values were obtained:
Format in all cases: in vivo
[1] = Sensory evaluation of the compounds in a chicken soup base; settings: chicken soup with 2 g/L versus reference samples, 12 panelists
Description: Chicken soups were prepared by dissolving 6 g chicken base powder (detailed recipe shown in Table 1) and 1 g monosodium glutamate in 500 mL hot water. 1-Deoxy-D-fructosyl-N-glutamyl-threonine was then added separately at 2 g/L final concentrations.
The sensory evaluation was carried out by 12 panelists, previously screened for their sensory abilities. The panelists assessed a maximum of 6 samples per session. They had Vittel water and crackers as mouth cleansers. In all the cases, the panelists were instructed to evaluate the samples for the following attributes: overall flavor persistency, umami, meaty, grilled/popcorn-like, bread-like, boiled chicken, sweet, bitter, and salty. The samples were coded with random 3-digit numbers according to a balanced presentation design, heated at approximately 65° C. and then presented in 40 mL brown plastic containers and under red light to minimize appearance bias (the serving was approximately 25 mL per sample).
The following statistical tests were used to analyze the sensory raw data: First, the Analysis of Variance (ANOVA) with two factors, products (fixed factor) and subject (random factor) was computed in order to determine if there was any difference among samples. The limit of significance (alpha risk) was set at 5%. […] The limit of significance (alpha risk) was set at 5%.

[2] = Sensory evaluation of the compounds in water; settings: 2 g/L in water, 12 panelists
Description: The compounds glutamyl-threonine and 1-deoxy-D-fructosyl-N-glutamyl-threonine were each dissolved and diluted in water in a final concentration of 2 g/L. The solutions were then evaluated by 12 panelists, which were previously screened and selected for their sensory abilities.

[3] = Comparison between soup bases containing the sugar conjugate and the mixture of glucose and glutamyl-threonine; settings: soup base with 2 g/L (4.57 mmol/L) versus reference soup with same molar glucose and glutamyl-threonine, 6 panelists
Description: A first soup was prepared by adding 2 g/L (4.57 mmol/L) 1-deoxy-D-fructosyl-N-glutamyl-threonine in the soup base described above under Example 4. A second soup was prepared by adding the corresponding same molar concentrations of glucose and glutamyl-threonine to the same soup base. The resulting soups were then evaluated by 6 panelists following the same procedure than described above under Example 4.

[4] = Seasoning compositions: tomato soups with added compound; settings: tomato soup, 0.5 g/L or 2.5 g/L, versus reference soups without the compounds
Description: Tomato soups can be prepared by dissolving 6 g tomato base powder as can be obtained in the commerce in 500 mL hot water. 1-deoxy-D-fructosyl-N-glutamyl-threonine or alternatively 1-deoxy-D-fructosyl-N-glutamyl-serine can be added at a concentration of 0.5 g/L or 2.5 g/L to the soups in order to improve their taste and flavor profile. […] For example, a similar tomato soup can now be prepared which has the same saltiness as the reference tomato soup but comprising less sodium chloride.

CC(O)[C@H](NC(=O)[C@H](CCC(=O)O)NCC1(O)OCC(O)C(O)C1O)C(=O)O (stereo partly drawn) [1-deoxy-D-fructosyl-N-glutamyl-threonine]
bitterness [1]: decreased
saltiness ([1]; FIG. 1): significantly increased
meaty taste ([1]; clear trend): improved
umami taste ([1]; clear trend): improved
perceived saltiness of the aqueous solution versus the reference samples [2]: much more salty
salty and umami taste, tasted with nose-clips [3]: significantly more salty and umami
savory flavors, tasted without nose-clips [3]: clearly more enhanced savory flavors
perceived saltiness [4]: more salty
umami [4]: more pronounced umami

C[C@@H](O)[C@H](NC(=O)[C@@H](N)CCC(=O)O)C(=O)O [glutamyl-threonine, reference compound] (H-Glu-Thr-OH)
taste of the aqueous solution [2]: slightly umami and salty
